{"source": "patent US20240002499A1", "about": "“ANTI-CLIC1 PROTEIN ANTIBODIES AND THE DIAGNOSTIC AND THERAPEUTIC USES THEREOF” (Universita' Degli Studi di Milano, priority 2020, published 2024)", "key": {"[1]": {"molecular_target": "T1, CLIC1 (Homo sapiens, UniProt O00299)", "T1 construct": "expressed in transfected cells; host or cells: HEK cells", "test": "Whole-cell patch clamp on HEK cells transfected with CLIC1 plasmid", "type": "cell-based", "details": "HEK cells overexpressing CLIC1; voltage steps from −60 to +80 mV; IAA94 50 μM", "experimental": "FIG. 17. Current/voltage relationship of CLIC1 membrane current in whole-cell patch clamp experiments. HEK cells were transfected with CLIC1 plasmid to overexpress the CLIC1 protein. After recording control current (filled cycles; n=5) cells were perfused alternatively with the polyclonal antibody (open triangles; n=7), tmCLIComab (inverse open triangles; n=10) and with 50 μM IAA94 (filled squared; n=11). The whole cells current is expressed as a current density.\nThe reference sequence of the CLIC1 protein used in the experiments described in the present patent application is filed at UniProt under number UniProtKB—000299 (CLIC1 human), and described in the article Harrop S. J. et al., “Crystal structure of a soluble form of the intracellular chloride ion channel CLIC1 (NCC27) at 1.4-Å Resolution”; The Journal of Biological Chemistry, Vol. 276 No. 48, November 30, pp. 44993-45000 (2001).\nThe potential was set on the basis of the resting potential of each cell (between 0 and −80 mV). The CLIC1-mediated chlorine currents were isolated from other ion currents by mathematical subtraction of the residual current following perfusion of 100 μM IAA94 dissolved in the external solution."}, "[2]": {"system": "pMAP38", "test": "Western blot of phosphorylated MAP38 in COLO201", "type": "cell-based", "details": "COLO201, 72 h of treatment"}, "[3]": {"system": "human glioblastoma cells", "test": "Growth curves of human glioblastoma cells in primary culture", "type": "cell-based", "details": "glioblastoma cells, FIG. 9", "from_the_text": "The primary glioblastoma cell lines, already tested for stem cell properties and carcinogenicity, were kindly supplied by Professor T. Florio's laboratory at Genoa University (Genoa, Italy). The cells were obtained from a surgical biopsy performed in the Neurosurgery Department of IRCCS-AOU San Martino IST (Genoa, Italy), from patients who had not received any treatment before the operation. The samples were histologically classified as GB grade IV (according to the WHO classification), and were used after obtaining the patients' informed consent and the approval of the Institutional Ethics Committee (IEC). The cells were cultured in stem cell-permissive medium consisting of Dulbecco's Modified Eagle's Medium (DMEM) and F12-GlutaMAX at the ratio of 1:1, supplemented with 1×B27 (Thermo Fisher Scientific), […] of fibroblast growth factor (FGF, Miltenyi Biotec), […] of human epidermal growth factor (EGF, Miltenyi Biotec) and 1% penicillin/streptomycin (Pen/Strep, […]) (Thermo Fisher Scientific).\nThe cells were seeded in 24-well plates (20,000 cells/well) and counted after 24, 48, 72 and 96 hours to construct the growth curve. The cells were collected and centrifuged, and the resuspended pellet was diluted 1:1 with Trypan Blue. An automated counter (Countess II, Thermo Fisher Scientific) was used to count the cells. All data were normalized to their controls."}, "[4]": {"system": "human glioblastoma cells", "test": "ROS production in human glioblastoma cells in primary culture", "type": "cell-based", "experimental": "In the subsequent functional experiment, ROS production was measured over time. The graph in FIG. 11 relates to the acquisition of fluorescence signals proportional to the amount of cytoplasmic ROS in glioblastoma cells. The cells were treated with both the antibody and the tmCLIC1 channel blocker."}, "[5]": {"system": "tumour cells", "details": "both in vitro and in vivo; cited from earlier work"}, "[6]": {"system": "Metalloproteinase 7 (MMP7)", "test": "Western blot of Metalloproteinase 7 in COLO201", "type": "cell-based", "details": "COLO201, 72 h of treatment"}, "[7]": {"details": "cited from earlier work"}, "[8]": {"molecular_target": "T2, tmCLIC1 ion channel (Mus musculus, UniProt Q9Z1Q5)", "T2 construct": "endogenous in cells; host or cells: BV-2 mouse microglial cell line", "test": "Whole-cell patch clamp on BV2 microglial cells with β-amyloid", "type": "cell-based, mice", "details": "blocker perfused after tmCLIC1omab", "from_the_text": "The microglial cells used (BV-2) originated from an immortalised cell line deriving from C57BL/6 mice and commonly marketed. The culture medium used was RPMI (Thermo Fisher Scientific) with the addition of 10% FBS (Euroclone) and 1% Pen/Strep ([…], Thermo Fisher Scientific).\nThe microelectrodes were obtained from borosilicate capillaries with a diameter of 1.5 mm. Micropipettes were produced with a P-97 Brown-Flaming puller (Sutter Instruments, Novato, CA), with which the capillaries were forged to a tip diameter of 1-1.5 μm and electrical resistance of 5-8 MΩ.\nThe perforated patch clamp configuration was used for the whole-cell experiments, employing the antibiotic gramicidin (final concentration in pipette 5 μg/ml) which forms pores in the membrane that are only permeable to monovalent cations; in this way, the cytoplasmic concentration of the chloride ion remains unchanged throughout the experiment. The ion currents were digitised at 5 kHz and filtered at 1 kHz. Clampex 9.2 was used as the data acquisition and analysis programme.\nIn the time-course experiments, the potential was set on the basis of the resting potential of each cell, and a voltage step of +60 mV was applied every 5 seconds. The current measured is that observed at the end of the voltage step lasting 800 ms. When the amplitude of the current reaches a constant value, the antibody and IAA94 are added in sequence. […]"}, "[9]": {"system": "COLO201", "test": "COLO201 spheroids, 3D culture", "type": "cell-based", "details": "treated 24 to 96 hours, area normalized on initial area", "experimental": "To evaluate whether tmCLIC1omab is able to penetrate across tumor spheroids, a 3D culture was performed. After the complete formation of spheroids, treatments were added and the area was measured every 24 hours up to 96 hours. The area at each time point was then normalized on the initial spheroids' area.\nSpheroids were formed with hanging-drop method and then plated in rounded 96 plates coated with 5% of agar. After the complete formation of spheroids, treatments were added and the area was measured every 24 hours up to 96 hours. The area at each time point was then normalized on the initial spheroids' area."}, "[10]": {"system": "COLO201", "test": "Trans well migration and invasion assay", "type": "cell-based", "details": "COLO201 WT, 72 h", "experimental": "The overexpression of tmCLIC1 in the most aggressive cell lines of colorectal cancer and its pivotal role in regulation of cell cycle progression and proliferation, opens a question on the function of tmCLIC1 activity on migration and invasion potential of CRCs, that makes colorectal cancer still uncurable. We performed a Trans well assay to understand whether CLIC1 impairment could affect the migration and invasion potential of COLO201. Cells were plated after 60 hours of serum deprivation on a porous membrane, permeable only to growth factor, in contact to complete medium. The resulting chemo-attractant gradient leads the migrative cells to cross the membranes that are then stained with DAPI to visualize the nuclei. […] For invasion assays, we coated with Matrigel the porous membrane to mimic the extracellular matrix that cells must disrupt to invade tissues and mucosa.\nCells were plated after 60 hours of serum deprivation on a […] porous membrane, permeable only to growth factor, in contact to complete medium. Membranes were cut, stained with DAPI dye, and included with mowiol. Cover glasses were examined under Zeiss Examiner A1 fluorescence microscope with a Zeiss 40×/0.75 NA water immersion lens."}}, "note": "“Also recorded” adds a separate entry of the source."}
{"smiles": "C[C@]1(C2CCCC2)Cc2cc(OCC(=O)O)c(Cl)c(Cl)c2C1=O", "note": "[IAA94, R(+)-[(6,7-dichloro-2-cyclopentyl-2,3-dihydro-2-methyl-1-oxo-1H-inden-5-yl)-oxy]acetic acid, reference compound]", "values": [{"measurement": "inhibition of CLIC1 ionic whole-cell current", "setting": "[1]", "value": "maximum inhibition"}, {"measurement": "expression of pMAP38", "setting": "[2]", "value": "downregulated"}, {"measurement": "growth rate compared with Clic1−/− knockout cells", "setting": "[3]", "value": "the same growth rate"}, {"measurement": "fall in ROS production", "setting": "[4]; FIG. 11 legend, versus control", "value": "about fourfold"}, {"measurement": "reduction of the slope of the ROS increase curve", "setting": "[4]; fluorescence signals proportional to cytoplasmic ROS", "value": "about fivefold"}, {"measurement": "proliferation of the tumour cells", "setting": "[5]", "value": "drastic slowing"}, {"measurement": "expression of Metalloproteinase 7", "setting": "[6]", "value": "mainly abolished"}, {"measurement": "usability in vivo / side effects", "setting": "[7]", "value": "unusable in vivo for its side effects"}, {"measurement": "further decrease in membrane current after antibody treatment", "setting": "[8]", "value": "only generates a minimal decrease in current"}, {"measurement": "spheroids' area / proliferation of spheroids versus control", "setting": "[9]", "value": "significantly smaller compared to the control from 48 h; also recorded: impair proliferation of spheroids significantly after 48 hours"}, {"measurement": "migration (number of migrative nuclei) versus control", "setting": "[10]", "value": "significant lower number of migrative nuclei"}, {"measurement": "invasion (number of invasive nuclei) versus control", "setting": "[10]; Matrigel-coated membrane", "value": "the same behavior seen for migration assay"}]}
